According to ChEMBL document CHEMBL5584338, “Design, Synthesis, and Biological Evaluation of 5-Amino-4-fluoro-1H-benzo[d]imidazole-6-carboxamide Derivatives as Novel and Potential MEK/RAF Complex Inhibitors Based on the "Clamp" Strategy” (J Med Chem, 2024):
Activity calls are given as the source filed them. The calls are words filed in the database; no cut-off is given here.

Key:
[1] = target: T1, Dual specificity mitogen-activated protein kinase kinase 1 (Homo sapiens, UniProt Q02750); test: Inhibition of MEK1 (unknown origin)
T1 sequence (Q02750 whole entry): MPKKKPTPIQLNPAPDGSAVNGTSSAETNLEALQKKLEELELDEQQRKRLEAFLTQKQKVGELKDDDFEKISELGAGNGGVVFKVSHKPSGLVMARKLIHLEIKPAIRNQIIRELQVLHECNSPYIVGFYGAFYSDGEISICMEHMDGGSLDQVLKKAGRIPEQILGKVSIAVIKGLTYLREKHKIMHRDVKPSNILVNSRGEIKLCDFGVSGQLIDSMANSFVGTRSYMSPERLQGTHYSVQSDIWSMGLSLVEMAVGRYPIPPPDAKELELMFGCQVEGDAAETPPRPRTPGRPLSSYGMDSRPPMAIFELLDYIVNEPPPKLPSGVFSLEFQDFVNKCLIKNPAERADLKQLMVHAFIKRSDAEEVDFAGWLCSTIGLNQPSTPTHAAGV

HCT-116 [2] = test: Antiproliferative activity against human HCT-116 cells harboring KRAS G13D mutant incubated for 72 hrs by CCK8 assay; format: functional, cell-based; details: HCT-116, 72 h
[3] = target: T1, Dual specificity mitogen-activated protein kinase kinase 1; test: Inhibition of MEK1 (unknown origin) assessed as remaining activity at 0.1 uM relative to control
[4] = target: T2, Serine/threonine-protein kinase B-raf (Homo sapiens, UniProt P15056); test: Inhibition of BRAF (unknown origin)
T2 sequence (P15056 whole entry): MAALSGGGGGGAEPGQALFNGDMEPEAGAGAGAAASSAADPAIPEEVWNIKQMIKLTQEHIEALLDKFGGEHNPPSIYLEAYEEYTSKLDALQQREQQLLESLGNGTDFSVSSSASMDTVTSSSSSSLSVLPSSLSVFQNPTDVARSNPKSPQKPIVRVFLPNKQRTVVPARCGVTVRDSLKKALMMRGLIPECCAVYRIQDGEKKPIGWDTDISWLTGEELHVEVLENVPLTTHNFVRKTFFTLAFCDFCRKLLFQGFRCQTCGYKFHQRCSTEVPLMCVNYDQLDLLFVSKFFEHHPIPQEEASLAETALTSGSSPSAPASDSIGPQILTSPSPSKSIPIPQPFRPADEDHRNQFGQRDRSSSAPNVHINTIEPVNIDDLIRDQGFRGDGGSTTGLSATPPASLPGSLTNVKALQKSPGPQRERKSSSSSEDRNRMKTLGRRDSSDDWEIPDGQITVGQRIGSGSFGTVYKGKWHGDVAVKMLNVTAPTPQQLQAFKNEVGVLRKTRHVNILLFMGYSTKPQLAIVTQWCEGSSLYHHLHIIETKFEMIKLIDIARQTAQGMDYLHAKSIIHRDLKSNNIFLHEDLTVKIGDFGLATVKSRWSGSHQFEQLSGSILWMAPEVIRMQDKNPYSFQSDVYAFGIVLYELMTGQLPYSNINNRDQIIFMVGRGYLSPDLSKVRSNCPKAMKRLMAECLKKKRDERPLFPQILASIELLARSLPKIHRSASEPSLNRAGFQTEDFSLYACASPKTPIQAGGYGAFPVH

[5] = Antiproliferative activity against mouse C26 cells harboring KRAS G12D mutant incubated for 72 hrs by CCK8 assay; format: functional, cell-based, C-26; details: C26, 72 h
[6] = target: T2, Serine/threonine-protein kinase B-raf; test: Inhibition of BRAF (unknown origin) assessed as remaining activity at 0.1 uM relative to control
[7] = Inhibition of BRAF […] mutant (unknown origin); set-up: species or system Homo sapiens
[8] = system: Mitogen-activated protein kinase 1/3 (ERK1/2) (Homo sapiens); test: Inhibition of ERK phosphorylation in human MIA PaCa-2 cells upto 1 uM incubated for 4 hrs by Western blot analysis
HeLa = test: Antiproliferative activity against human HeLa cells incubated for 72 hrs by CCK8 assay; format: functional, cell-based
HCT-116 [9] = test: Antiproliferative activity against human HCT-116 cells harboring KRAS G13D mutant at 1 uM incubated for 72 hrs by CCK8 assay relative to control; format: functional
[10] = Antiproliferative activity against rat H9c2 cells incubated for 72 hrs by CCK8 assay; format: toxicity, cell-based
MIA PaCa-2 [11] = test: Antiproliferative activity against human MIA PaCa-2 cells harboring KRAS G12C mutant at 0.1 uM incubated for 72 hrs by CCK8 assay relative to control; format: functional
[12] = Stability in human liver microsomes assessed as half life at 200 uM preincubated for 5 mins followed by NADPH addition measured upto 60 mins by LC-MS/MS analysis; format: ADME, Microsome; details: time 65 min
MIA PaCa-2 [13] = test: Antiproliferative activity against human MIA PaCa-2 cells harboring KRAS G12C mutant incubated for 72 hrs by CCK8 assay; format: functional, cell-based; details: MIA PaCa-2, 72 h
[14] = target: Dual specificity mitogen-activated protein kinase kinase; MEK1/2 (Homo sapiens) (UniProt P36507+Q02750); test: Inhibition of MEK phosphorylation in human MIA PaCa-2 cells upto 1 uM incubated for 4 hrs by Western blot analysis; format: cell-based
Dual specificity mitogen-activated protein kinase kinase; MEK1/2 (Homo sapiens), sequence (P36507 whole entry, looked up): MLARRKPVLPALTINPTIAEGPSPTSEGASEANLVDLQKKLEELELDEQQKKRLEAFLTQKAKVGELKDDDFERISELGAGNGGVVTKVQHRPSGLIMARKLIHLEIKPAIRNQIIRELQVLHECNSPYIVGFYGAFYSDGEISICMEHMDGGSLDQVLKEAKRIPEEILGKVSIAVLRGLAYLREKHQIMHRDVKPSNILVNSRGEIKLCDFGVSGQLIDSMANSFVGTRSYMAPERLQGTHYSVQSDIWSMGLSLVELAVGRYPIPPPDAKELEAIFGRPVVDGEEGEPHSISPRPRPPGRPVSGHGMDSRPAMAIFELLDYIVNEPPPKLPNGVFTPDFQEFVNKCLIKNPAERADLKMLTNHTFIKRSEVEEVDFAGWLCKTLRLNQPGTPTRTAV
Dual specificity mitogen-activated protein kinase kinase; MEK1/2 (Homo sapiens), sequence (Q02750 whole entry, looked up): as the sequence (Q02750 whole entry) above

| Compound | IC50 [1] | IC50 (HCT-116 [2]) | Activity [3] | IC50 [4] | IC50 [5] | Activity [6] | IC50 [7] | inhibition [8] | IC50 (HeLa) | inhibition at 1 µM (HCT-116 [9]) | IC50 at 72 h [10] | inhibition at 0.1 µM (MIA PaCa-2 [11]) | half-life at 200 µM [12] | IC50 (MIA PaCa-2 [13]) | inhibition [14] |
| --- | --- | --- | --- | --- | --- | --- | --- | --- | --- | --- | --- | --- | --- | --- | --- |
| CCNS(=O)(=O)Nc1cccc(Cn2cnc3c(F)c(Nc4ccc(C5CC5)cc4F)c(C(=O)NOCCO)cc32)c1 | 74 nM | 123 nM | 46% | 7 nM | 226 nM | 0% | 8 nM | Active | > 10000 nM | 60.4% | > 50000 nM | 78.8% | 47.5 min | 23 nM |  |
| CNS(=O)(=O)Nc1cccc(Cn2cnc3c(F)c(Nc4ccc(C)cc4F)c(C(=O)NOCCO)cc32)c1F |  | 694 nM | 58% |  |  | 3% |  |  |  | 74.8% |  | 57.7% |  | 861 nM |  |
| CNS(=O)(=O)Nc1cccc(Cn2cnc3c(F)c(Nc4ccc(Br)cc4F)c(C(=O)NOCCO)cc32)c1F |  | 113 nM | 16% |  |  | 3% |  |  |  | 60.3% |  | 35.7% |  | 225 nM |  |
| CCNS(=O)(=O)Nc1cccc(Cn2cnc3c(F)c(Nc4ccc(C5CC5)cc4F)c(C(=O)NOCCO)cc32)c1Cl |  | 731 nM | 20% |  |  | 3% |  |  |  | 49.6% |  | 76% |  | 31 nM |  |
| CNS(=O)(=O)Nc1cccc(Cn2cnc3c(F)c(Nc4ccc(C5CC5)cc4F)c(C(N)=O)cc32)c1 | > 2000 nM |  |  |  |  |  |  |  |  | 21.9% |  | 15.8% |  |  |  |
| CC(C)NS(=O)(=O)Nc1cccc(Cn2cnc3c(F)c(Nc4ccc(C5CC5)cc4F)c(C(=O)NOCCO)cc32)c1 |  | 132 nM | 55% |  |  | 4% |  |  |  | 59.3% |  | 65.9% |  | 150 nM |  |
| CCNS(=O)(=O)Nc1cccc(Cn2cnc3c(F)c(Nc4ccc(I)cc4F)c(C(=O)NOCCO)cc32)c1F |  | 202 nM | 8% |  |  | 1% |  |  |  | 69.1% |  | 65.3% |  | 43 nM |  |
| CNS(=O)(=O)Nc1cc(F)cc(Cn2cnc3c(F)c(Nc4ccc(C5CC5)cc4F)c(C(=O)NOCCO)cc32)c1 |  | 173 nM | 53% |  |  | 5% |  |  |  | 57.4% |  | 65.8% |  | 47 nM |  |
| CNS(=O)(=O)Nc1cccc(Cn2cnc3c(F)c(Nc4ccc(C5CC5)cc4F)c(C(=O)NOCCO)cc32)c1F | 42 nM | 183 nM | 40% | 4 nM | 56 nM | -4% | 5 nM | Active | > 10000 nM | 61.2% | > 50000 nM | 75.9% | 37.7 min | 15 nM | Active |
| CNS(=O)(=O)Nc1cccc(Cn2cnc3c(F)c(Nc4ccc(C5CC5)cc4F)c(C(=O)NOCCO)cc32)c1 | 119 nM | 223 nM | 58% | 5 nM | 152 nM | 5% | 16 nM |  | > 10000 nM | 52.8% | > 50000 nM | 53.1% |  | 114 nM |  |
| CNS(=O)(=O)Nc1cccc(Cn2cnc3c(F)c(Nc4ccc(I)cc4F)c(C(=O)NOCCO)cc32)c1Cl |  | 352 nM | 5% |  |  | 1% |  |  |  | 66.7% |  | 60.8% |  | 60 nM |  |
| CNS(=O)(=O)Nc1cccc(Cn2cnc3c(F)c(Nc4ccc(I)cc4F)c(C(=O)NOCCO)cc32)c1F | 8 nM | 74 nM | 9% | 4 nM | 11 nM | -2% |  | Active | > 10000 nM | 64.8% | > 50000 nM | 62% | 25 min | 71 nM | Active |
| CCNS(=O)(=O)Nc1cc(F)cc(Cn2cnc3c(F)c(Nc4ccc(C5CC5)cc4F)c(C(=O)NOCCO)cc32)c1 |  | 140 nM | 59% |  |  | 5% |  |  |  | 56.7% |  | 76.5% |  | 32 nM |  |
| CCNS(=O)(=O)Nc1cccc(Cn2cnc3c(F)c(Nc4ccc(Br)cc4F)c(C(=O)NOCCO)cc32)c1F |  | 150 nM | 20% |  |  | 2% |  |  |  | 65.1% |  | 22.8% |  | 362 nM |  |
| CCNS(=O)(=O)Nc1cccc(Cn2cnc3c(F)c(Nc4ccc(I)cc4F)c(C(=O)NOCCO)cc32)c1Cl |  | 377 nM | 9% |  |  | 0% |  |  |  | 61.4% |  | 43.1% |  | 127 nM |  |
| CCNS(=O)(=O)Nc1cccc(Cn2cnc3c(F)c(Nc4ccc(C)cc4F)c(C(=O)NOCCO)cc32)c1F |  | 457 nM | 54% |  |  | 4% |  |  |  | 57.6% |  | 55.7% |  | 219 nM |  |
| CNS(=O)(=O)Nc1nccc(Cc2c(C)c3ccc(Oc4ncccn4)cc3oc2=O)c1F [AVUTOMETINIB] |  | 739 nM |  |  |  |  |  |  |  | 56.1% |  | 59.6% |  | 115 nM | Active |
| CNS(=O)(=O)Nc1cccc(Cn2cnc3c(F)c(Nc4ccc(C5CCC5)cc4F)c(C(=O)NOCCO)cc32)c1F |  | 898 nM | 76% |  |  | 5% |  |  |  | 48.5% |  | 52.8% |  | 249 nM |  |
| CNS(=O)(=O)Nc1cccc(Cn2cnc3c(F)c(Nc4ccc(C5CC5)cc4F)c(C(=O)NOCCO)cc32)c1Cl |  | 626 nM | 19% |  |  | 3% |  |  |  | 55.6% |  | 62.6% |  | 169 nM |  |
| CC(C)CNS(=O)(=O)Nc1cccc(Cn2cnc3c(F)c(Nc4ccc(C5CC5)cc4F)c(C(=O)NOCCO)cc32)c1 |  | 425 nM | 80% |  |  | 5% |  |  |  | 60.2% |  | 55.8% |  | 48 nM |  |
| CC(=O)Nc1cccc(Cn2cnc3c(F)c(Nc4ccc(C5CC5)cc4F)c(C(=O)NOCCO)cc32)c1 |  |  | 75% |  |  | 22% |  | Active |  | 33.3% |  | 64.8% |  | 237 nM |  |
